The supplement of paper PMC10307832

Assays:
Experiment in all cases: relative viability (nuclei count vs DMSO), 5 days (fraction); higher = more cells survive
Mirin + Dasatinib = compound: N=C1NC(=O)/C(=C/c2ccc(O)cc2)S1 [Mirin] + Cc1nc(Nc2ncc(C(=O)Nc3c(C)cccc3Cl)s2)cc(N2CCN(CCO)CC2)n1 [Dasatinib] (partner 0.075 µM)
In short: (§1)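 Relative viability divides the nuclei count in treated wells by that in vehicle wells. Lung cancer cell lines were seeded in 1536-well plates, dosed by pin tool the next day, and fixed and stained after 5 days in one step with final 0.05% Triton X-100, 1% formaldehyde and 1 ug/ml Hoechst. Dosing was a single drug or a fixed anchor-drug dose plus five library-drug doses (not always all listed) in √10 steps, and values are medians of duplicate plates imaged at 4×.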

[1] = compound: CCC1=CN=CN=C1N2CCN(CC2)CC3=NC4=C(N3)C=C(C=C4)C(F)(F)F + N=C(N)NC(=N)NCCc1ccccc1 [Phenformin] (partner 250 µM)
In short: as §1

[2] = compound: CCC1=CN=CN=C1N2CCN(CC2)CC3=NC4=C(N3)C=C(C=C4)C(F)(F)F + C[C@]1(O)C[C@@H](c2nc(-c3ccc4ccc(-c5ccccc5)nc4c3)c3c(N)nccn32)C1 [Linsitinib] (partner 1 µM)
In short: as §1

[3] = compound: CCC1=CN=CN=C1N2CCN(CC2)CC3=NC4=C(N3)C=C(C=C4)C(F)(F)F + CC(C)C[C@H](NC(=O)[C@H](Cc1ccccc1)NC(=O)c1cnccn1)B(O)O [Bortezomib] (partner 0.002 µM)
In short: as §1

Cell Line | relative viability (Mirin + Dasatinib; first compound 0.25 µM) | relative viability (Mirin + Dasatinib; first compound 0.7906 µM) | relative viability (Mirin + Dasatinib; first compound 2.5 µM) | relative viability (Mirin + Dasatinib; first compound 7.906 µM) | relative viability (Mirin + Dasatinib; first compound 25 µM) | relative viability ([1]; first compound 0.04 µM) | relative viability ([1]; first compound 0.1265 µM) | relative viability ([1]; first compound 0.4 µM) | relative viability ([1]; first compound 1.265 µM) | relative viability ([1]; first compound 4 µM) | relative viability ([2]; first compound 0.04 µM) | relative viability ([2]; first compound 0.1265 µM) | relative viability ([2]; first compound 0.4 µM) | relative viability ([2]; first compound 1.265 µM) | relative viability ([2]; first compound 4 µM) | relative viability ([3]; first compound 0.04 µM) | relative viability ([3]; first compound 0.1265 µM) | relative viability ([3]; first compound 0.4 µM) | relative viability ([3]; first compound 1.265 µM) | relative viability ([3]; first compound 4 µM)
NCI-H358 | 0.2 | 0.16 | 0.161 | 0.134 | 0.13 | 0.345 | 0.289 | 0.372 | 0.317 | 0.349 | 0.809 | 0.656 | 0.656 | 0.657 | 0.607 |  |  |  |  | 
NCI-H522 | 0.814 | 0.869 | 0.845 | 0.652 | 0.648 | 0.628 | 0.583 | 0.571 | 0.64 | 0.601 |  |  |  |  |  |  |  |  |  | 
NCI-H1793 | 0.481 |  | 0.391 | 0.409 | 0.344 | 0.359 | 0.354 | 0.292 |  | 0.253 | 1 | 0.677 | 0.825 |  | 0.895 |  |  |  |  | 
SW 900 | 0.513 | 0.521 | 0.54 | 0.542 | 0.47 | 0.571 | 0.555 | 0.648 | 0.551 | 0.832 |  |  |  |  |  |  |  |  |  | 
SK-MES-1 | 0.368 | 0.341 | 0.446 | 0.475 | 0.389 | 0.613 | 0.608 | 0.583 | 0.622 | 0.528 | 1.02 | 1.06 | 1.16 | 1.1 | 0.95 |  |  |  |  | 
EBC-1 |  |  |  |  |  |  |  |  |  |  | 0.996 | 0.811 | 0.782 | 0.759 | 0.897 | 0.557 | 0.528 | 0.6 | 0.458 | 0.486
LK-2 | 0.275 |  | 0.272 | 0.194 | 0.178 | 0.416 | 0.565 | 0.407 | 0.23 | 0.523 | 0.739 | 0.515 | 0.588 | 0.319 | 0.598 |  |  |  |  | 
NCI-H1650 | 0.307 | 0.294 | 0.306 | 0.256 | 0.231 | 0.484 | 0.519 | 0.392 |  | 0.416 |  |  |  |  |  | 0.18 | 0.222 | 0.199 | 0.211 | 0.19
IA-LM |  |  |  |  |  |  |  |  |  |  | 0.664 | 0.617 | 0.568 | 0.45 | 0.464 | 0.786 | 0.911 | 0.761 | 0.752 | 0.702
NCI-H1703 |  |  |  |  |  |  |  |  |  |  | 0.595 | 0.669 | 0.851 | 0.473 | 0.771 | 0.305 | 0.26 | 0.248 | 0.446 | 0.307
NCI-H1395 | 0.439 | 0.434 | 0.429 | 0.376 | 0.418 | 0.41 | 0.436 | 0.444 | 0.415 | 0.458 | 1.12 | 1.01 | 1.24 | 0.855 | 1.09 |  |  |  |  | 
